Experimental data as given in ChEMBL document CHEMBL1148670, “Keto-1,3,4-oxadiazoles as cathepsin K inhibitors” (Bioorg Med Chem Lett, 2006).

Experiments:
Settings in all cases: read-out: Ki app
[1] = target: Cathepsin B (Homo sapiens, UniProt P07858); experiment: Inhibition of human cathepsin B
[2] = target: Cathepsin S (Homo sapiens, UniProt P25774); experiment: Inhibition of human cathepsin S
[3] = target: T1, Cathepsin K (Homo sapiens, UniProt P43235); experiment: Inhibition of human cathepsin K
T1 sequence (P43235 whole entry): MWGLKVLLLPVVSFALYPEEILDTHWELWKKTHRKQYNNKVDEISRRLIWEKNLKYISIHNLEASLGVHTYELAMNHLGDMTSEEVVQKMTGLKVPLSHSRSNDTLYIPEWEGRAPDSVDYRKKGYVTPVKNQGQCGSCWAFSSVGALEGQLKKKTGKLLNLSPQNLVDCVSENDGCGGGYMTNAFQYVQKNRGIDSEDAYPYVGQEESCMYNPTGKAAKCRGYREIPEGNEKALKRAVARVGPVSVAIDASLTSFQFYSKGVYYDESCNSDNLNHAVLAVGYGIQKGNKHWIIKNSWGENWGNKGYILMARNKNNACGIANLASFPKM

[4] = target: Procathepsin L (Homo sapiens, UniProt P07711); experiment: Inhibition of human cathepsin L
Procathepsin L, sequence (P07711 whole entry): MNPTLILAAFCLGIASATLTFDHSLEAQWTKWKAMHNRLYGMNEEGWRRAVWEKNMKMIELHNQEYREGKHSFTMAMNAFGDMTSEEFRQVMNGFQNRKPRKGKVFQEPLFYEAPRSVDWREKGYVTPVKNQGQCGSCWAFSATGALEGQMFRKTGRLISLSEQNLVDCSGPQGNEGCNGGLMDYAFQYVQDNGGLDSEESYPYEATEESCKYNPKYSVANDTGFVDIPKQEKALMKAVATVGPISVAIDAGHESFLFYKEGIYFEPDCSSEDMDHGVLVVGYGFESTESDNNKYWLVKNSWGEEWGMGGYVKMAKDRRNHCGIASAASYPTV

Cathepsin S, sequence (P25774 whole entry): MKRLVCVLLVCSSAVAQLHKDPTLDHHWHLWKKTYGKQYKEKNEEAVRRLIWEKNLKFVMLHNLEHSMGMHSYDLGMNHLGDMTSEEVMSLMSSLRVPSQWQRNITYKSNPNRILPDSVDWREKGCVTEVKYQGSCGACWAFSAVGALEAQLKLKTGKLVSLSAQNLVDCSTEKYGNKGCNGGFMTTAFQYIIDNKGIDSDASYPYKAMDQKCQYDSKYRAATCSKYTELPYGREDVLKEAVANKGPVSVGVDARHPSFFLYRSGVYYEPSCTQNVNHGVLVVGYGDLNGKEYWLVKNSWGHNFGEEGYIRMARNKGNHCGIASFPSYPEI

| SMILES | Ki [1] [nM] | Ki [2] [nM] | Ki [3] [nM] | Ki [4] [nM] |
| --- | --- | --- | --- | --- |
| CCC[C@H](NC(=O)[C@H](CC(C)C)C(=O)OCc1ccccc1)C(=O)c1nnc(-c2ccco2)o1 | 2 | < 0.25 | < 0.25 | 1 |
| CCC[C@H](NC(=O)C1(NC(=O)c2ccc(OC(F)(F)F)cc2)CCCCC1)C(=O)c1nnc(-c2cccc(C(F)(F)F)c2)o1 | 1100 | 3300 | 54 | 1400 |
| CCC[C@H](NC(=O)C1(NC(=O)c2ccc(OC(F)(F)F)cc2)CCCCC1)C(=O)c1nnc(-c2ccc(C(F)(F)F)cc2)o1 | 23000 | 13000 | 550 | 11000 |
| CCC[C@H](NC(=O)C1(NC(=O)c2ccc(OC(F)(F)F)cc2)CCCCC1)C(=O)c1nnc(-c2cccs2)o1 | 270 | 760 | 5.2 | 2900 |
| CCC[C@H](NC(=O)C1(NC(=O)c2ccc(OC(F)(F)F)cc2)CCCCC1)C(=O)c1nnc(C(C)(C)C)o1 | 10000 | 17000 | 1300 | 10000 |
| CCC[C@H](NC(=O)C1(NC(=O)c2ccc(OC(F)(F)F)cc2)CCCCC1)C(=O)c1nnc(-c2ccco2)o1 | 220 | 350 | 1.7 | 1000 |
| CCC[C@H](NC(=O)C1(NC(=O)OC(C)(C)C)CCCCC1)C(=O)c1nnc(-c2ccco2)o1 | 7300 | 960 | 43 | 18000 |
| CCC[C@H](NC(=O)C1(NC(=O)c2ccc(N(C)C)cc2)CCCCC1)C(=O)c1nnc(-c2ccco2)o1 | 730 | 700 | 0.95 | 960 |
| CCC[C@H](NC(=O)Cc1ccccc1)C(=O)c1nnc(-c2ccco2)o1 | 110000 | 9200 | 52000 | 150000 |
| CCC[C@H](NC(=O)OC(C)(C)C)C(=O)c1nnc(C(C)C)o1 | > 150000 | 130000 | 5600 | > 150000 |
| CCC[C@H](NC(=O)C1(NC(=O)c2ccc(OC(F)(F)F)cc2)CCCCC1)C(=O)c1nnc(-c2ccc(OC)cc2)o1 | 57000 | 20000 | 22 | 37000 |
| CCC[C@H](NC(=O)OC(C)(C)C)C(=O)c1nnc(-c2cccs2)o1 | 120000 | 12000 | 810 | 63000 |
| CCC[C@H](NC(=O)OC(C)(C)C)C(=O)c1nnc(-c2ccc(N(C)C)cc2)o1 | > 150000 | 28000 | 33000 | 130000 |
| CCC[C@H](NC(=O)C1(NC(=O)c2ccc(OC(F)(F)F)cc2)CCCCC1)C(=O)c1nnc(C(C)C)o1 | 430 | 800 | 35 | 4600 |
| CCC[C@H](NC(=O)[C@H](CC(C)C)NCC(F)(F)F)C(=O)c1nnc(-c2ccco2)o1 | 48000 | 240 | 120 | 2100 |
| CCC[C@H](NC(=O)OCC(C)C)C(=O)c1nnc(-c2ccco2)o1 | 16000 | 380 | 500 | 14000 |
| CCC[C@H](NC(=O)CCc1ccccc1)C(=O)c1nnc(-c2ccco2)o1 | 25000 | 2600 | 9600 | 100000 |
| CCC[C@H](NC(=O)OCc1ccccc1)C(=O)c1nnc(-c2ccco2)o1 | 34000 | 2000 | 3000 | 28000 |
| CCC[C@H](NC(=O)C1(NC(=O)c2ccc(OC(F)(F)F)cc2)CCCCC1)C(=O)c1nnc(-c2ccccc2)o1 | 73000 | 45000 | 29 | 19000 |
| CCC[C@H](NC(=O)C1(NC(=O)c2ccc(OC(F)(F)F)cc2)CCCCC1)C(=O)c1nnc(-c2cccc(OC)c2)o1 | 2100 | 10000 | 37 | 7500 |
| CCC[C@H](NC(=O)OC(C)(C)C)C(=O)c1nnc(-c2ccccc2OC)o1 | > 150000 | 19000 | 17000 | > 150000 |
| CCC[C@H](NC(=O)C1(NC(=O)c2ccc(F)cc2)CCCCC1)C(=O)c1nnc(-c2ccco2)o1 | 950 | 140 | 19 | 2900 |
| CCC[C@H](NC(=O)C1(NC(=O)c2ccc(OC(F)(F)F)cc2)CCCCC1)C(=O)c1nnc(OC)o1 | 93 | 320 | 3.3 | 160 |
| CCC[C@H](NC(=O)C1(NC(=O)c2ccc(OC(F)(F)F)cc2)CCCCC1)C(=O)c1nnc(CC)o1 | 98 | 470 | 7.9 | 300 |
